Data set [1] deals with P. aeruginosa PA14 4.13 (phoQ). The data set is described as follows: microbe, parasite or virus in culture. Conditions: Pseudomonas aeruginosa.
For data set [2] the following is noted: 25% (v/v) human serum in 0.1 M TRIS buffer pH 7.4, peptide 200 μM, 37 °C, 0/24/48/72 h, LC-MS UV trace vs 4-hydroxybenzoic acid internal standard, n = 3. On the procedure:
Human serum was diluted in 0.1 M filtered TRIS buffer pH 7.4 (50%, 1:1, v/v). Selected peptides were diluted in 0.1 M filtered TRIS buffer pH 7.4 to a concentration of 400 μM and 0.1 mg/mL 4- hydroxybenzoic acid was added as internal standard. Aliquots of peptide solution (300 μL) were added to aliquots of serum (300 μL) in sterile 1.5 mL Eppendorf tubes, to reach a peptide concentration of 200 μM and 25% (v/v) human serum during the assay. Samples, in triplicate, were incubated at 37 °C under gentle stirri ng (200 rpm). At different time points (0, 24, 48 and 72 hours), 100 μL of each sample was collected and quenched by precipitating serum proteins through the addition of (0.1 M) ZnSO4·7 H2O / ACN (1:1) (0.1 M, 100 μL) and cooling in ice bath for 10 minutes. Protein precipitates were pelleted under centrifugation (5 min at 14’000 rpm) and the supernatants were analysed by LC-MS. Peaks corresponding to the internal standard and the undegraded peptides were integrated from the area under the curves (AUC) of UV traces, with the ratio peptide/standard at t = 0 h as 100%.
Figure S7. Serum stability assay of the respective compound (200 μM), incubated with human serum (25% in TRIS buffer, 0.1 M, pH 7.4) at 37 °C. Aliquots were taken at different time (0 / 24 / 48 and 72 h). Undegraded peptide values determined by RP -HPLC analysis usi ng hydroxybenzoic acid as internal standard. Measured in triplicates and the data represent mean ± SD, n […]
(1 picture or pasted object on this page, not shown here)

In data set [3] the target is T1, DnaK (Escherichia coli, UniProt P0A6Y8).
T1 construct: made in house; host or cells: E. coli BL21(DE3), pET28a T7 vector (synthetic gene, GenScript)
The experiment in a line: Microscale thermophoresis with His-Tag-labeled DnaK. It is filed as binding. Conditions: MST buffer. On the procedure: A plasmid containing the DnaK insert was designed in SnapGene and ordered commercially as a synthetic gene (Figure S11). Chemically competent BL21(DE3) cells were transformed with the plasmid vector (GenScript), and positive transformants were selected on LB + Kanamycin agar. For protein expression, 6 mL of overnight cultures inoculated with a single colony were used to initiate shake-flask expression at 300 mL scale in LB + kanamycin ([…]) + 1 mM IPTG. The flasks were cultured overnight at 220 rpm, 37 °C, and the bacteria were harvested by centrifugation the next day. Pelleted cells were stored at −20 °C. […] The collected fractions were analyzed by SDS-PAGE. […]
DnaK labeling was performed using the Nanotemper Monolith His-Tag Labeling Kit RED-tris-NTA Second Generation. […] The fluorescence variation between the samples was measured in 4 replicates with the Monolith NT.115 device in Monolith NT.115 Premium Capillaries and analyzed with the MOcontrol software (Figures S13–S15).
To each sample, 10 μL of 40 nM His-Tag-labeled DnaK was added, resulting in a final volume of 20 μL per sample. The fluorescence variations between the samples were measured by using the Monolith NT.115 device with Monolith NT.115 Premium Capillaries. The data were analyzed with MOcontrol software to determine the binding affinity between L-onc and His-Tag-labeled DnaK (Figure S16).
A general note: Microscale thermophoresis detects binding through changes in fluorescence in a small temperature gradient.

Values after ≈ are worked out from the molar mass of the structure shown. Values joined by “and” are separate entries in the source; they are usually repeats but may differ in a detail not shown here. Identical values can stand only once. “Also recorded” adds a separate entry of the source. Like-named read-outs stand apart in the source and are kept apart here. Non-standard residues stand in square brackets, D forms with d. Residues, ends and D or L forms follow the SMILES beside them. No end group written: not given here.

This is an account of results in article PMC11571207, “Stereorandomized Oncocins with Preserved Ribosome Binding and Antibacterial Activity” (Journal of Medicinal Chemistry, 2024).

T1 sequence (P0A6Y8 whole entry, species assumed): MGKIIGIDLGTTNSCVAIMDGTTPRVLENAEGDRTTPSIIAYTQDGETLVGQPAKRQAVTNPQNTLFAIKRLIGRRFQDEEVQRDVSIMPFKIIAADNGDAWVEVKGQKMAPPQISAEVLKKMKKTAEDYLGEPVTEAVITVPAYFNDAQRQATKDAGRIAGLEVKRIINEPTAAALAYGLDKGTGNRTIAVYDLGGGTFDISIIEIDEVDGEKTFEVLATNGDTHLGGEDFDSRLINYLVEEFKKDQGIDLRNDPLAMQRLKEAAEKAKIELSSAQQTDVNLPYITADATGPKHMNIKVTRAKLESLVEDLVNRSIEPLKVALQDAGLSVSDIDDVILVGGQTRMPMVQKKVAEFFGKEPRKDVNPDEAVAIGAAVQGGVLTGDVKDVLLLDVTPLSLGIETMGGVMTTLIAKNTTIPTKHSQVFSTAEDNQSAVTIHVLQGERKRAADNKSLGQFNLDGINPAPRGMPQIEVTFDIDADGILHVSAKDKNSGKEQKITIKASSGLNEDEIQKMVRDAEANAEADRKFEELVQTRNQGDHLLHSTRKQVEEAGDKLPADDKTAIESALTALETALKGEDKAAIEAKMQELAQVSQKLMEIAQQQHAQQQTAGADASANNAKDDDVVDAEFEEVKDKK

In the case of `CC[C@H]1OC(=O)[C@H](C)[C@@H](O[C@H]2C[C@@](C)(OC)[C@@H](O)[C@H](C)O2)[C@H](C)[C@@H](O[C@@H]2O[C@H](C)C[C@H](N(C)C)[C@H]2O)[C@](C)(O)C[C@@H](C)CN(C)[C@H](C)[C@@H](O)[C@]1(C)O` [AZM, azithromycin, reference compound], the MIC in data set [1] (PA14, pH 7.4, read-out: MIC P. aeruginosa PA14 4.13 (phoQ), 12.5% MHB, polymyxin B resistant strain, 12.5% MHB pH 7.4, 16–20 h at 37 °C) was in the range of 16 to 32 µg/mL (≈ 21.4 to 42.7 µM); in data set [1] (PA14, pH 7.4, read-out: MIC P. aeruginosa PA14 4.13, supplement CSV, 12.5% MH pH 7.4), 16 to 32 µg/mL (≈ 21.4 to 42.7 µM).

As to `CC[C@H](C)[C@H](NC(=O)[C@@H](CCCNC(=N)N)NC(=O)[C@H](CCCNC(=N)N)NC(=O)[C@@H]1CCCN1C(=O)[C@@H]1CCCN1C(=O)[C@H](CCCNC(=N)N)NC(=O)[C@@H]1CCCN1C(=O)[C@H](CCCNC(=N)N)NC(=O)[C@@H]1CCCN1C(=O)[C@H](CC(C)C)NC(=O)[C@H](Cc1ccc(O)cc1)NC(=O)[C@@H]1CCCN1C(=O)[C@@H]1CCCN1C(=O)[C@H](CCCCN)NC(=O)[C@H](CC(=O)O)NC(=O)[C@@H](N)C(C)C)C(=O)N[C@@H](Cc1ccc(O)cc1)C(=O)N[C@@H](CC(N)=O)C(=O)N[C@H](CCCNC(=N)N)C(N)=O` [Onc112, reference compound] (H-VDKPPYLPRPRPPR[dR]IYN[dR]-NH2), the “Serum stability (undegraded peptide)” value in data set [2] is on record as “essentially stable to degradation over 24 h”.

For “VDKPPYLPRPRPPRRIYNR [sr-Onc] (VDKPPYLPRPRPPRRIYNR-NH2; also: all 19 residues stereorandomized (1:1 L/D mixture)) [fully stereorandomized oncocin]”, the DnaK binding check result in data set [3] (20 nM His-Tag-labeled DnaK, 50 μM peptide, 4 replicates) is on record as “negative for binding; also recorded: no detectable binding to DnaK”.

For the compound “VDKPPYLPRPRPPRRIYNR-NH2 [L-Onc, reference compound]”, the Kd in data set [3] (2-fold serial dilution from 100 μM, His-Tag-labeled DnaK, read-out: KD, apparent binding to DnaK) is 29.8 µM and ~30 µM. Moreover, the “Serum stability (undegraded peptide)” value in data set [2] was “rapidly degraded”.
